Legend:
[1] = molecular target: uMEK/BRAF (Homo sapiens (Human), UniProt Q02750); assay: MEK-RAF Binding Assay (uMEK/BRAF HTRF)
[2] = test system: Phosphorylation of ERK1/2 in AsPC1 cells; assay: 4 hour pERK1/2 HTRF Assay; type: cell-based; settings: Homo sapiens, ASPC1, read-out: pERK AsPC-1 HTRF (4 hour): Average IC50 (nM); AsPC-1, 4 hour
Method: AsPC1 cells were seeded at 20,000 cells/well overnight in 96-well plates, then treated with a 12-point dose response of compounds (Starting dose of 3000 nM and 3-fold dilution) for 4 hours. AsPC1 cells are a K-Ras mutant cell line. Phosphorylation of ERK1/2 on residues Thr202 and Tyr204 were detected using a Homogenous Time-Resolved Fluorescence (HTRF) assay (Cisbio Cat #64ERKPEG). Briefly, ERK phosphorylation was detected using a sandwich assay format using two phospho-ERK specific antibodies, one labelled with EU^3+-Cryptate (donor) and the second with d2 (acceptor). The Fluorescence Resonance Energy Transfer (FRET) towards the d2 acceptor was detected at a wavelength of 665 nm. ERK1/2 phosphorylation levels were normalized to total ERK1/2 protein levels in each well. IC50 values were determined by fitting a variable slope, four parameters curve to the compound concentration to normalized Phospho-ERK1/2 relationship.

[3] = Cassette pharmacokinetics studies in mice; type: in vivo; settings: male, Balb/c, plasma; Mouse, PO, 5 mg/kg
Method: Pharmacokinetics studies were conducted using cassette dosing protocols, with test compounds administered per mouse. Treatment groups were 3 mice (˜6-8 weeks old, ˜20-30 g Balb/c male mice) per route of administration. Compounds were formulated in 5% DMSO and 95% PEG400 with final concentrations of 0.5 mg/mL for IV and PO dosing. Compounds were dosed at 2 mg/kg for IV dosing and 5 mg/kg for PO dosing. Blood samples were withdrawn at 0.083, 0.25, 0.5, 1.0, 2.0, 4.0, 6.0, 8.0, and 24 hours following IV dosing, and 0.25, 0.5, 1.0, 2.0, 4.0, 6.0, 8.0, and 24 hours following PO dosing. Blood samples were centrifuged at 4,000 g for 5 minutes at 4° C. to obtain plasma samples. Plasma samples were diluted with acetonitrile containing internal standard, vortexed for 30 seconds, then centrifuged at 4,000 rpm for 15 minutes at 4° C. The supernatant was diluted with water, and compound concentration was determined by HPLC/MS/MS compared to calibration standards of 0.5-1,000 ng/mL.
Where route is listed as “IV*”, the compound was dosed IV at 1 mg/kg.

[4] = Pharmacokinetics in rat; type: in vivo; settings: plasma, IV, 1 mg/kg; for Vd: read-out: Vdss
[5] = test system: cancer cell lines; assay: In vitro MEK inhibitor drug combinations (Cell Titer Glo, Loewe synergy); type: cell-based; settings: combination with I-2, 5 days
Method: Cell viability was determined by Cell Titer Glo assay. […] A normalized Loewe sum of synergy score of >10 was considered synergistic, <10, but >−10 additive, and <−10 antagonistic.

[6] = molecular target: MEK1-CRAF complex (Homo sapiens (Human), UniProt Q02750); assay: Stabilization of MEK1-CRAF complex assay (AlphaLISA); type: binding
Method: MEK1 was diluted to 4 nM, and nickel chelate donor beads and glutathione acceptor beads were diluted to 80 μg/mL. CRAF was diluted to a top concentration of 160 nM, which was subsequently diluted to 80, 40, 20, 10, 5, 2.5, 1.25, and 0.625 nM through 1:2 serial dilution.
Exemplary MEK inhibitor compounds (0, 0.01, 0.1, or 1 μM) were added to a 384-AlphaPlate (PerkinElmer, 6008350) by a digital liquid dispenser (Tecan D300e) based on a total volume of 20 μL reaction mixture.
5 μL 4×MEK1 stock solution was added to wells A1-P20 by multichannel pipettes. The plate was sealed with clear olefin sealing tape (Thermo Scientific, 232701), centrifuged at 1000 rpm for 1 minute, and incubated at room temperature for 30 minutes.
5 μL 4×CRAF stock solution at different concentrations or 5 μL or 10 μL AlphaLISA buffer was added by multichannel pipettes. The plate was sealed, centrifuged at 1000 rpm for 1 minute, and incubated at room temperature for 60 minutes.
5 μL 4×glutathione acceptor beads were first added to all wells by multichannel pipettes. The ambient light was subsequently adjusted to <100 lux (light meter) before adding 5 μL 4×nickel chelate donor beads to the same wells. From this step on, the plate was covered with a black plate cover, centrifuged at 1000 rpm for 1 minute, and incubated at room temperature for 60 minutes.
Data were collected on a PHERAStar FSX (BMG LABTECH) using the AlphaLISA module (excitation: 680 nm, emission: 615 nm), with a gain of 3600. The excitation time was 0.30 seconds, and data collection started after a 0.04-second delay for a total integration time of 0.60 seconds.
The individual AlphaLISA counts of wells with exemplary MEK inhibitor compound were divided by the average AlphaLISA counts of wells without compound to obtain AlphaLISA signal/background ratio (S/B). The dissociation constant (KD) of MEK1-CRAF was calculated using nonlinear regression curve fit in GraphPad PRISM® 9.0 software.

[7] = test system: SKM-1 xenograft (KRAS K117N); assay: In vivo efficacy, SKM-1 xenograft model; set-up: species or system mouse; settings: SKM-1 model, 100 mg/kg QD, Day 22
Method: (§1) The antitumor activity of exemplary MEK inhibitor compounds is evaluated in vivo using human cell line derived xenografts (CDX) grown in immunodeficient mice. For these studies, AsPC1 (pancreatic cell line with KRAS G12D mutation), NCI-H2122 (lung cell line with KRAS G12C mutation), and 5637 (bladder cell line with CRAF amplification) models are used. In addition, HCT-116 (colorectal cell line with KRAS G13D mutation), SKM-1 (AML cell line with KRAS K117N mutation), and OCI-AML-3 (AML cell line with NRAS Q61L mutation) models are used. The tumor cell lines (AsPC-1, NCI-H2122, 5637, and HCT-116 cells) are maintained in vitro as monolayer culture in medium at 37° C. in an atmosphere of 5% CO2 in air. The tumor cell lines (SKM-1 and OCI-AML-3 cells) are maintained in vitro as a suspension in medium at 37° C. in an atmosphere of 5% CO2 in air. The tumor cells are routinely sub-cultured before confluence by trypsin-EDTA treatment, not to exceed 4-5 passages. The cells growing in an exponential growth phase are harvested for tumor inoculation. AsPC1, NCI-H2122, and OCI-AML-3 tumors are implanted into Balb/c nude mice. HCT-116 tumors are implanted into Nu/Nu mice. 5637 and SKM-1 tumors are implanted into NOG mice. Each mouse is inoculated subcutaneously on the right flank with tumor cells in a 1:1 mixture with matrigel. Tumors are allowed to grow to approximately 150-200 mm^3. At this time, mice are assigned to groups such that the mean tumor volume is the same for each treatment group. The MEK inhibitor compound treatments are administrated to the tumor-bearing mice via oral gavage. Throughout the study, mouse body weight and tumor volume are recorded. The measurement of tumor size is conducted twice weekly with a caliper and recorded. The tumor volume (mm^3) is estimated using the formula: TV=a×b^2/2, where “a” and “b” are long and short diameters of a tumor, respectively.

[8] = test system: OCI-AML-3 xenograft (NRAS Q61L); assay: In vivo efficacy, OCI-AML-3 xenograft model; set-up: species or system mouse; settings: OCI-AML-3 model, 100 mg/kg QD, Day 15
Method: as §1

[9] = AsPC-1, HPAF, MiaPACA2, NCI-H1373, NCI-H2122, PANC03276

Chain of uMEK/BRAF (Q02750 whole entry): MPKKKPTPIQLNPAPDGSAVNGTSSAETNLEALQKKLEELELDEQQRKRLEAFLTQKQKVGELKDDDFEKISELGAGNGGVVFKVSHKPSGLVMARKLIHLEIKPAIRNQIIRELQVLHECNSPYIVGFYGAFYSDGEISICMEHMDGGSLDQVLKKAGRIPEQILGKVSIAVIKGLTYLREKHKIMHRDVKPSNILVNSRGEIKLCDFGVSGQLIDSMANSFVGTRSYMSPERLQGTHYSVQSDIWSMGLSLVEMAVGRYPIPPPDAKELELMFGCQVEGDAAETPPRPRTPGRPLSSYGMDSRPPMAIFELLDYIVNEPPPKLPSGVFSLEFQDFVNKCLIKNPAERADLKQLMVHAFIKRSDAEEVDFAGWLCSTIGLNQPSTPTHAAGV
Chain of MEK1-CRAF complex (Q02750 whole entry, looked up): as the sequence (Q02750 whole entry) above
Chain of MEK1-CRAF complex (P04049 whole entry partner, looked up): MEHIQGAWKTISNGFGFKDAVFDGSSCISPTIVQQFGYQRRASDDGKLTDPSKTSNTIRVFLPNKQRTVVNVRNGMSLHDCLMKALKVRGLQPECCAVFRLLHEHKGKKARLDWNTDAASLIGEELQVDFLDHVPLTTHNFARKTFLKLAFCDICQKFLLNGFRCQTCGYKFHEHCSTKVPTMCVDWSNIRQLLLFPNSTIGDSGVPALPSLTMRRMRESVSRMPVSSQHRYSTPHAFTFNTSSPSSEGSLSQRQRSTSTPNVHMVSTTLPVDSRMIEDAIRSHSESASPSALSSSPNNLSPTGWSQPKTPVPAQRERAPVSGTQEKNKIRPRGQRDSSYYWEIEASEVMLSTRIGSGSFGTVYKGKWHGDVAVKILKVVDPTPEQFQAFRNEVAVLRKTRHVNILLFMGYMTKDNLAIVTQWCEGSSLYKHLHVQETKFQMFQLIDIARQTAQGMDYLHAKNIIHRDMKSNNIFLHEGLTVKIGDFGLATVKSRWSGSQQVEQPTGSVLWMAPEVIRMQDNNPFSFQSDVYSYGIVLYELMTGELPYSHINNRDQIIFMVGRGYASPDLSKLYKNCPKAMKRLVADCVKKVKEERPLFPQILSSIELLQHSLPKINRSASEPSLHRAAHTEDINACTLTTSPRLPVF

| SMILES | IC50 [1] [nM] | IC50 [2] [nM] | AUC(0-inf) [3] [ng·h/mL] | AUC(0-t) [3] [ng·h/mL] | Cmax [3] [ng/mL] | Tmax [3] [min] | half-life [3] [min] | KD Ratio (mean), compound to DMSO ([6]; compound 0.01 μM) | KD Ratio (mean), compound to DMSO ([6]; compound 0.1 μM) | KD Ratio (mean), compound to DMSO ([6]; compound 1 μM) | other results |
| --- | --- | --- | --- | --- | --- | --- | --- | --- | --- | --- | --- |
| Cc1c(Oc2cccc(NS(=O)(=O)NCC(F)(F)F)c2Cl)c(C(=O)NC2CC2)c(Nc2ccc(I)cc2F)n(C)c1=O [Compound I-46] | < 100 | < 100 | 3800 | 3770 | 1430 | 36 | 168 | – | – | – | AUC(0-inf) [4]: 1590 ng·h/mL; AUC(0-t) [4]: 1550 ng·h/mL; clearance [4]: 10.5 mL/min/kg; half-life [4]: 112 min; Vd [4]: 1 L/kg |
| Cc1ccc(NC(=O)c2ccnc(C(F)(F)F)c2)cc1-c1cc(OCCO)nc(N2CCOCC2)c1 [LXH254] | – | – | – | – | – | – | – | – | – | – | Loewe Synergy Score > 10 [5, 9]: 6/6 cell lines |
| COCCNS(=O)(=O)Nc1cccc(Oc2c(C(=O)NC3CC3)c(Nc3ccc(I)cc3F)n(C)c(=O)c2C)c1Cl [Compound I-55] | < 100 | < 100 | 1090 | 1090 | 801 | 24 | 94.8 | 0.76 | 0.58 | 0.51 | – |
| Cc1c(Oc2cccc(NS(=O)(=O)NC3CC3)c2Cl)c(C(=O)NC2CC2)c(Nc2ccc(I)cc2F)n(C)c1=O [Compound I-42] | < 100 | < 100 | 511 | 506 | 418 | 24 | 66.6 | 0.78 | 0.57 | 0.57 | AUC(0-inf) [4]: 217 ng·h/mL; AUC(0-t) [4]: 205 ng·h/mL; clearance [4]: 76.8 mL/min/kg; half-life [4]: 125 min; Vd [4]: 9.9 L/kg |
| O=C1CCc2c(Oc3ccc4c(c3)[C@@H]3[C@H](O4)[C@H]3c3nc4ccc(C(F)(F)F)cc4[nH]3)ccnc2N1 [Lifirafenib] | – | – | – | – | – | – | – | – | – | – | Loewe Synergy Score > 10 ([5]; NCI-H358, NCI-H1373, NCI-H2122): 3/3 cell lines |
| C[C@H](Nc1ccc2c(c1)OCCn1cc(N3C(=O)OC[C@H]3C(F)F)nc1-2)C(N)=O [Inavolisib] | – | – | – | – | – | – | – | – | – | – | Loewe Synergy Score > 10 [5, 9]: 5/6 cell lines |
| C=CC(=O)N1CCN(c2nc(=O)n(-c3c(C)ccnc3C(C)C)c3nc(-c4c(O)cccc4F)c(F)cc23)[C@@H](C)C1 [Sotorasib] | – | – | – | – | – | – | – | – | – | – | Loewe Synergy Score > 10 ([5]; NCI-H358, NCI-H1373, NCI-H2122, MiaPACA2, NCI-H2030): 4/5 cell lines |
| CNS(=O)(=O)Nc1cccc(Oc2c(C(=O)NC3CC3)c(Nc3ccc(I)cc3F)n(C)c(=O)c2C)c1OC(F)(F)F [Compound I-40] | – | < 100 | 2940 | 2750 | 783 | 48 | 109 | 0.87 | 0.62 | 0.47 | – |
| CNS(=O)(=O)Nc1cccc(Oc2c(C(=O)NCC(F)(F)F)c(Nc3ccc(I)cc3F)n(C)c(=O)c2C)c1Cl [Compound I-45] | < 100 | < 100 | – | – | – | – | – | 0.62 | 0.42 | 0.38 | – |
| CC1(C)CCC(CN2CCN(c3ccc(C(=O)NS(=O)(=O)c4ccc(NCC5CCOCC5)c([N+](=O)[O-])c4)c(Oc4cnc5[nH]ccc5c4)c3)CC2)=C(c2ccc(Cl)cc2)C1 [venetoclax, reference compound] | – | – | – | – | – | – | – | – | – | – | percent TGI [7]: 46.6%; weight gain [7]: 7.5%; percent TGI [8]: 13%; weight gain [8]: 8.3% |
| Cc1nc(N2CCC3(CC2)CO[C@@H](C)[C@H]3N)c(CO)nc1-c1cccc(Cl)c1Cl [RMC-4550] | – | – | – | – | – | – | – | – | – | – | Loewe Synergy Score > 10 [5, 9]: 3/6 cell lines |
| CCNS(=O)(=O)Nc1cccc(Oc2c(C(=O)NC3CC3)c(Nc3ccc(I)cc3F)n(C)c(=O)c2C)c1Cl [Compound I-43] | < 100 | < 100 | 803 | 763 | 488 | 18 | 235 | 0.69 | 0.52 | 0.51 | – |

From patent US20230382863A1, “MEK INHIBITORS AND USES THEREOF” (Ikena Oncology, Inc., priority 2022, published 2023)
